Like-named read-outs stand apart in the source and are kept apart here.

The record followed here is patent publication US5480892A, “(N-phthalimidoalkyl)piperidines” (The Du Pont Merck Pharmaceutical Company, priority 1994, dated 1996).

The target in one data set is T1, Sigma receptor (Cavia porcellus, UniProt Q60492).
T1 construct: Brain membranes were prepared by the method of Tam; from tissue; host or cells: guinea pig whole brain membranes
Briefly: Sigma Receptor Binding Assay. The data set is classed as guinea pig (male Hartley), brain membranes. Conditions: 1 nM (+)-[3H]SKF 10,047, guinea pig brain membranes, pH 7.4, 45 min room temperature; read-out: Receptor Binding Affinity Sigma (Ki class).

The target of a further data set is T2, Dopamine (D-2) receptor (Cavia porcellus, UniProt H0VE83).
T2 construct: Membranes were prepared from guinea pig striatum; from tissue; host or cells: guinea pig striatum membranes
T2 sequence (H0VE83 1-446): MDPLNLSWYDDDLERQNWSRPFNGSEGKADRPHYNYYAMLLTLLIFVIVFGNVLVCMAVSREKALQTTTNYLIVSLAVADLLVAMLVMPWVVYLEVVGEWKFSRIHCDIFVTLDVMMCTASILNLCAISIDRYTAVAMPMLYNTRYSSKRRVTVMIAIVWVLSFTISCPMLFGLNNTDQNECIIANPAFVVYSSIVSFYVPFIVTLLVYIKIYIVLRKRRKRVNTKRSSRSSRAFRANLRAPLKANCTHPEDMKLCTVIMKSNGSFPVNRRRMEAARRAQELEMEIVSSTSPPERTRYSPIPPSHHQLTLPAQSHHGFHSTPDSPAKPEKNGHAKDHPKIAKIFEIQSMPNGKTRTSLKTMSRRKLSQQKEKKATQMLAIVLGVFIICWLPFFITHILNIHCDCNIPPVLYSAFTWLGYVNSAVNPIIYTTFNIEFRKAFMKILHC
In words: Dopamine Receptor Binding. It counts as guinea pig, striatum membranes. Conditions: 0.15 nM [3H]spiperone, guinea pig striatum, pH 7.7, 15 min 37° C.; read-out: Receptor Binding Affinity Dopamine (D-2) (Ki class).

The subject of data set [1] is isolation-induced aggression in mice. In words: Isolation-Induced Aggression in Mice. The data set is classed as in vivo, mouse (male Balb/c). Conditions: for ED50: Mus musculus, po, 0.25 h, read-out: Inhibition of Isolation-induced Aggression (ED50 class).
Protocol: Male Balb/c mice (Charles River) were used. […] Isolated mice failing to consistently attack an intruder were eliminated from the colony.
Drug testing was carried out by treating the isolated mice with test drugs or standards. Fifteen min after dosing with drugs by the oral route (p.o.), one isolated mouse was removed from its home cage and placed in the home cage of another isolate. Scoring was a yes or no response for each pair. A maximum of 3 min was allowed for an attack and the pair was separated immediately upon an attack. Selection of home cage and intruder mice was randomized for each test. Mice were treated and tested twice a week with at least a 2 day washout period between treatments.
For data set [2], the system named is PCP-induced turning behavior in rats. In words: PCP-Induced Turning Behavior in Rats. The data set is classed as in vivo, rat (male Sprague-Dawley). The conditions noted are these: for ED50: Rattus norvegicus, po, 6-OHDA lesioned rats, drug p.o. 20 min before, PCP 1.5 mg/kg s.c., read-out: Inhibition of PCP-induced Turning (ED50 class). On the procedure:
Male Sprague-Dawley rats (CD/CR, Charles River), weighing 190-290 g, were used for surgery. In order to spare […] neurons, rats were injected with 25 mg/kg imipramine intraperitoneal (i.p.) 30 min before surgery. The rats were anesthetized with a 1:1.2 ratio mixture of Xylazine:Ketamine given 0.1 mL/100 g body weight intramuscular (i.m.). A Ringers-Wydaze (100:0.01) solution was given to prevent dehydration. Dopamine was depleted in the right striatum by injecting the neurotoxin 6-hydroxydopamine (6-OHDA) into the substantia nigra of the right cerebral hemisphere. Five mg of 6-OHDA was dissolved in 5 mL of a 0.04% ascorbic acid solution which had been deoxygenated with nitrogen. Five μL of the 6-OHDA solution was injected into the substantia nigra through a 26 gauge needle over a five min period. Stereotaxic injection coordinates were -2.5 mm posterior to bregma, -2.1 mm right of the midsagittal suture, and -8.6 mm below the skull surface with the incisor bar set at +5.0 mm. Following surgery they were given 10 days to recover while housed four per cage (45.0 L×20.0 H×26.0 W) with ALPHA-dri bedding and ad lib access to Pro-Lab rodent chow and deionized water. […] At all times they were housed in the animal care facility under a 12--12 hour light/dark cycle (light on at 6:00 h, light off at 18:00 h).
Rotation rate and direction were determined with Coulbourn Instruments Rotometry Monitors. Clockwise and counter clockwise rotations were recorded at 30 and 60 min intervals. The rats were examined for correct lesion location by testing for rotational activity induced by subcutaneous (s.c.) injections of 3.0 mg/kg D-amphetamine SO4, and 2.0 mg/kg PCP HCl, respectively. These drugs were administered in the following sequence: Amphetamine was given 30 sec before testing. […]
The data was analyzed with an analysis of variance statistical test, and individual comparisons of each dose of test drug to control were made with Dunnett's multiple range test. The ED50 was calculated with a Litchfield and Wilcoxon test using percent of control values.

Data set [3] relates to catalepsy in rats. The conditions noted are these: rat, in vivo.
Another data set in a line: in vivo. The conditions noted are these: rat, po.
The test system of data set [4] is catalepsy in rats. In words: Induction of Catalepsy. Conditions: statement on Table III.

T1 sequence (Q60492 whole entry): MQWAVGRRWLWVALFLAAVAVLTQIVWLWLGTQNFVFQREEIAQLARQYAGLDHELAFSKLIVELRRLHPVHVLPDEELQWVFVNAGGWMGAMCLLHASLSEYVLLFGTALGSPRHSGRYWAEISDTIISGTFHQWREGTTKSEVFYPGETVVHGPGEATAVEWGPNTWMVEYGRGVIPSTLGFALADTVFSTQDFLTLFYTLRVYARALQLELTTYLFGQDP
Protocol for Dopamine (D-2) receptor: Membranes were prepared from guinea pig striatum by the method described for sigma receptor binding. The membranes were then resuspended in 50 mM Tris HCl (9 mL per brain).
Nonspecific binding was measured in the presence of 100 nM (+)-butaclamol After 15 min of incubation at 37° C. samples were filtered rapidly through Whatman GF/C glass filters under negative pressure, and washed three times with ice-cold binding buffer (5 mL).
Protocol for Sigma receptor: Male Hartley guinea pigs (250-300 g, Charles River) were sacrificed by decapitation. […] Whole brains were homogenized (20 sec.) in 10 vol (wt/vol) of ice-cold 0.34 M sucrose with a Brinkmann Polytron (setting 8). The homogenate was centrifuged at 920×g for 10 min. The supernatant was centrifuged at 47,000×g for 20 min. The resulting membrane pellet was resuspended in 10 vol (original wt/vol) of 50 mM Tris HCl (pH 7.4) and incubated at 37° C. for 45 min to degrade and dissociate bound endogenous ligands. The membranes were then centrifuged at 47,000×g for 20 min and resuspended in 50 mM Tris HCl (50 mL per brain).
After 45 rain of incubation at room temperature, samples were filtered rapidly through Whatman GF/C glass filters under negative pressure, and washed 3 times with ice-cold Tris buffer (5 mL).
IC50 s were calculated from log-logit plots. Apparent Ki s were calculated from the equation, Ki =IC50 /[1+(L/Kd)], where L is the concentration of radioligand and Kd is its dissociation constant.

As for `O=C1[C@H]2CCCC[C@H]2C(=O)N1CC1CCN(CCc2ccccc2)CC1` [Example 3, 2-[1-(2-Phenylethyl)-4-piperidinylmethyl]-cis-3a,4,5,6,7,7a-hexahydro-1H-isoindole-1,3(2H)-dione], the Ki (commonly the equilibrium dissociation constant of an inhibitor or competing ligand from its target) was 1 to 30 nM at Sigma receptor and greater than 500 nM on Dopamine (D-2) receptor. The ED50 (usually the midpoint of the dose-response relation) was 11 to 20 mg/kg in data set [1] (mice, p.o., 15 min after dosing); 21 to 70 mg/kg in data set [2]; greater than 70 mg/kg in “in vivo”. Besides, the “producing catalepsy” value in the data set with catalepsy in rats [3] was “does not produce catalepsy”.

As to `O=C(CCCN1CCC(O)(c2ccc(Cl)cc2)CC1)c1ccc(F)cc1` [haloperidol, reference compound], the ED50 (in data set [1]; in data set [2]; in the data set “in vivo”) was less than 11 mg/kg throughout. Further, the “inhibiting the isolation-induced aggressive behavior” value in data set [1] (statement on Table II) is “potent activities”. Further, the “inhibiting PCP-induced turning behavior” value in data set [2] (statement on Table III, rats) is given as “potent activity”. Moreover, in the data set on catalepsy in rats [4], the “producing catalepsy” value is on record as “very potent in producing catalepsy”.
